Where a SMILES comes first, the peptide text is derived from it.
Columns and labels:
[1] = Solubility of peptide in water; type: physicochemical
Experimental: H23, H26, H30, 2H30, and 4H30 shown in Table 1 were synthesized by ChinaPeptide (Shanghai, China). All peptides were dissolved in water. The solubility of peptide in water is greater than 5 mg ml^−1. The purity of all peptides was >80%. The purity and mass of each peptide were verified by HPLC and mass spectrometry.

VeroE6 cells = assay: Endosomal acidification assay; type: cell-based
Experimental: Endosomal acidification was detected with a pH-sensitive dye (pHrodo green dextran, Invitrogen, Cat^# P35365) according to the manufacturer's instructions as previously described but with slight modification (H. Zhao, et al., Nat Commun, 9 (2018) 2358). First, VeroE6 cells were treated with DMEM, 4H30 (25.0 μg ml^−1), or bafilomycin A1 (50.0 nM) at 4° C. for 15 min. Second, VeroE6 cells were added with 100 μg ml^−1 of pH-sensitive dye and DAPI and then incubated at 4° C. for 15 min. Before taking images, cells were further incubated at 37° C. for 15 min and then cells were washed twice with PBS. Finally, PBS was added to cells and images were taken immediately with confocal microscope (Carl Zeiss LSM 800, Germany).

[2] = system: spike-ACE2 mediated fusion; type: cell-based; details: endocytosis pathway
[3] = molecular target: SARS-CoV-2 spike (SARS-CoV-2), P0DTC2; assay: cell-based or functional assay

Molecule: CC[C@H](C)[C@H](NC(=O)[C@H](CCC(N)=O)NC(=O)[C@H](CCCCN)NC(=O)[C@H](Cc1ccc(O)cc1)NC(=O)[C@H](CCCNC(=N)N)NC(=O)[C@H](CCCNC(=N)N)NC(=O)[C@@H]1CCCN1C(=O)[C@H](CS)NC(=O)[C@H](Cc1ccccc1)NC(=O)[C@@H](NC(=O)[C@@H]1CCCN1C(=O)[C@H](Cc1c[nH]cn1)NC(=O)[C@@H](N)CS)C(C)C)C(=O)NCC(=O)N[C@H](C(=O)N[C@@H](CS)C(=O)NCC(=O)N[C@@H](CC(C)C)C(=O)N1CCC[C@H]1C(=O)NCC(=O)N[C@H](C(=O)N[C@@H](CCCCN)C(=O)N[C@@H](CS)C(=O)O)[C@@H](C)O)[C@@H](C)O [Peptide H23] (H-CHPVFCPRRYKQIGTCGLPGTKC-OH; N-terminus and C-terminus assumed)
- solubility [1]: > 5000 µg/mL

Molecule: CC[C@H](C)[C@H](NC(=O)[C@H](CCC(N)=O)NC(=O)[C@H](CCCCN)NC(=O)[C@H](Cc1ccc(O)cc1)NC(=O)[C@H](CCCNC(=N)N)NC(=O)[C@H](CCCNC(=N)N)NC(=O)[C@@H]1CCCN1C(=O)[C@H](CS)NC(=O)[C@H](Cc1ccccc1)NC(=O)[C@@H](NC(=O)[C@@H]1CCCN1C(=O)[C@H](Cc1c[nH]cn1)NC(=O)[C@@H](N)CS)C(C)C)C(=O)NCC(=O)N[C@H](C(=O)N[C@@H](CS)C(=O)NCC(=O)N[C@@H](CC(C)C)C(=O)N1CCC[C@H]1C(=O)NCC(=O)N[C@H](C(=O)N[C@@H](CCCCN)C(=O)N[C@@H](CS)C(=O)N[C@@H](CS)C(=O)N[C@@H](CCCCN)C(=O)N[C@@H](CCCCN)C(=O)O)[C@@H](C)O)[C@@H](C)O [Peptide H26] (H-CHPVFCPRRYKQIGTCGLPGTKCCKK-OH; N-terminus and C-terminus assumed)
- solubility [1]: > 5000 µg/mL

Molecule: CC[C@H](C)[C@H](NC(=O)[C@H](C)NC(=O)CN)C(=O)N[C@@H](CS)C(=O)N[C@@H](Cc1c[nH]cn1)C(=O)N1CCC[C@H]1C(=O)N[C@H](C(=O)N[C@@H](Cc1ccccc1)C(=O)N[C@@H](CS)C(=O)N1CCC[C@H]1C(=O)N[C@@H](CCCNC(=N)N)C(=O)N[C@@H](CCCNC(=N)N)C(=O)N[C@@H](Cc1ccc(O)cc1)C(=O)N[C@@H](CCCCN)C(=O)N[C@@H](CCC(N)=O)C(=O)N[C@H](C(=O)NCC(=O)N[C@H](C(=O)N[C@@H](CS)C(=O)NCC(=O)N[C@@H](CC(C)C)C(=O)N1CCC[C@H]1C(=O)NCC(=O)N[C@H](C(=O)N[C@@H](CCCCN)C(=O)N[C@@H](CS)C(=O)N[C@@H](CS)C(=O)N[C@@H](CCCCN)C(=O)N[C@@H](CCCCN)C(=O)N1CCC[C@H]1C(=O)O)[C@@H](C)O)[C@@H](C)O)[C@@H](C)CC)C(C)C [Peptide H30] (H-GAICHPVFCPRRYKQIGTCGLPGTKCCKKP-OH; N-terminus and C-terminus assumed)
- solubility [1]: > 5000 µg/mL

Molecule: CO/C1=C\C(C)=C\[C@@H](C)[C@@H](O)[C@@H](C)C/C(C)=C/C=C/[C@H](OC)[C@@H]([C@@H](C)[C@@H](O)[C@H](C)[C@@]2(O)C[C@@H](O)[C@H](C)[C@@H](C(C)C)O2)OC1=O [bafilomycin Al, bafilomycin A1, reference compound]
- endosomal acidification (VeroE6 cells): inhibiting endosomal acidification
- spike-ACE2 mediated cell fusion [2]: inhibiting endosomal acidification and cell fusion

Molecule: GAICHPVFCPRRYKQIGTCGLPGTKCCKKP (modifications not checked) [four branched H30 (4H30)]
- IC50 of inhibition of SARS-CoV-2 infection, plaque reduction assay in PBS [3]: 0.59 µg/mL

— patent US20250171511A1, “ANTIVIRAL PEPTIDES AND METHODS OF USE THEREOF” (Versitech Limited, priority 2021, published 2025)
